These results are taken from ChEMBL document CHEMBL4811221, “Diosgenin Derivatives as Potential Antitumor Agents: Synthesis, Cytotoxicity, and Mechanism of Action” (J Nat Prod, 2021).

One assay has as its system A549. The experiment in a line: Cytotoxicity against human A549 cells assessed as cell growth inhibition measured after 24 hrs by MTT assay. Type of assay: functional, cell-based. The conditions noted are these: A549, 24 h.
In a further assay the test system is MCF7. The experiment in a line: Cytotoxicity against human MCF7 cells assessed as cell growth inhibition measured after 24 hrs by MTT assay. The conditions noted are these: MCF7, 24 h. Type of assay: functional, cell-based.
Assay [1] relates to HepG2. Briefly: Cytotoxicity against human HepG2 cells assessed as cell growth inhibition measured after 24 hrs by MTT assay. It is filed as functional, cell-based. The conditions noted are these: HepG2, 24 h.
In a further assay the test system is L02. Briefly: Cytotoxicity against human L02 cells assessed as cell growth inhibition measured after 24 hrs by MTT assay. It is filed as cell-based. The conditions noted are these: L02, 24 h.
Assay [2] has as its system HepG2. Briefly: Cell cycle arrest in human HepG2 cells assessed as accumulation at G0/G1 phase at 4 uM measured after 24 hrs by RNaseA/propidium iodide staining based flow cytometry (reference value: 49.3 %). Type of assay: functional.
The subject of assay [3] is HepG2. Briefly: Cell cycle arrest in human HepG2 cells assessed as accumulation at S phase at 4 uM measured after 24 hrs by RNaseA/propidium iodide staining based flow cytometry (reference value: 24.3 %). It is filed as functional.
Assay [4] deals with HepG2. The experiment in a line: Cell cycle arrest in human HepG2 cells assessed as accumulation at G2/M phase at 4 uM measured after 24 hrs by RNaseA/propidium iodide staining based flow cytometry (reference value: 22.9 %). It is filed as functional.
For assay [5], the system named is HepG2. The experiment in a line: Cell cycle arrest in human HepG2 cells assessed as accumulation at G0/G1 phase at 8 uM measured after 24 hrs by RNaseA/propidium iodide staining based flow cytometry (reference value: 49.3 %). It is filed as functional.
Assay [6] has as its system HepG2. The experiment in a line: Cell cycle arrest in human HepG2 cells assessed as accumulation at S phase at 8 uM measured after 24 hrs by RNaseA/propidium iodide staining based flow cytometry (reference value: 24.3 %). Type of assay: functional.
Assay [7] concerns HepG2. The experiment in a line: Cell cycle arrest in human HepG2 cells assessed as accumulation at G2/M phase at 8 uM measured after 24 hrs by RNaseA/propidium iodide staining based flow cytometry (reference value: 22.9 %). Type of assay: functional.
Assay [8] relates to HepG2. Briefly: Induction of apoptosis in human HepG2 cells assessed as discernible cell rounding at 4 to 8 uM by fluorescent microscopic analysis. Type of assay: functional, cell-based. The conditions noted are these: dose 4-8 µM.
The test system of assay [9] is HepG2. The experiment in a line: Induction of apoptosis in human HepG2 cells assessed as cell shrinkage at 4 to 8 uM by fluorescent microscopic analysis. The conditions noted are these: dose 4-8 µM. It is filed as functional, cell-based.
The subject of assay [10] is HepG2. The experiment in a line: Induction of apoptosis in human HepG2 cells assessed as membrane blebbing at 4 to 8 uM by fluorescent microscopic analysis. The conditions noted are these: dose 4-8 µM. Type of assay: functional, cell-based.
The subject of assay [11] is HepG2. The experiment in a line: Induction of apoptosis in human HepG2 cells assessed as formation of apoptotic bodies at 4 to 8 uM by fluorescent microscopic analysis. Type of assay: functional, cell-based. The conditions noted are these: dose 4-8 µM.
The subject of assay [12] is HepG2. The experiment in a line: Induction of apoptosis in human HepG2 cells assessed as live cells at 4 uM measured after 24 hrs by annexinV-FITC/propidium iodide staining based flow cytometry (reference value: 91.7 %). It is filed as functional.
The subject of assay [13] is HepG2. The experiment in a line: Induction of apoptosis in human HepG2 cells assessed as early apoptotic cells at 4 uM measured after 24 hrs by annexinV-FITC/propidium iodide staining based flow cytometry (reference value: 2.03 %). It is filed as functional.
Assay [14] deals with HepG2. Briefly: Induction of apoptosis in human HepG2 cells assessed as late apoptotic cells at 4 uM measured after 24 hrs by annexinV-FITC/propidium iodide staining based flow cytometry (reference value: 5.45 %). Type of assay: functional.
In assay [15] the test system is HepG2. The experiment in a line: Induction of apoptosis in human HepG2 cells assessed as necrotic cells at 4 uM measured after 24 hrs by annexinV-FITC/propidium iodide staining based flow cytometry (reference value: 0.77 %). It is filed as functional.
Assay [16] deals with HepG2. The experiment in a line: Induction of apoptosis in human HepG2 cells assessed as live cells at 8 uM measured after 24 hrs by annexinV-FITC/propidium iodide staining based flow cytometry (reference value: 91.7 %). It is filed as functional.
The subject of assay [17] is HepG2. Briefly: Induction of apoptosis in human HepG2 cells assessed as early apoptotic cells at 8 uM measured after 24 hrs by annexinV-FITC/propidium iodide staining based flow cytometry (reference value: 2.03 %). It is filed as functional.
Assay [18] deals with HepG2. Briefly: Induction of apoptosis in human HepG2 cells assessed as late apoptotic cells at 8 uM measured after 24 hrs by annexinV-FITC/propidium iodide staining based flow cytometry (reference value: 5.45 %). It is filed as functional.
Assay [19] deals with HepG2. Briefly: Induction of apoptosis in human HepG2 cells assessed as necrotic cells at 8 uM measured after 24 hrs by annexinV-FITC/propidium iodide staining based flow cytometry (reference value: 0.77 %). Type of assay: functional.

Calls of active or inactive are those of the source. The calls are words filed in the database; no cut-off is given here.

On to `Cc1ccc(C[N+]2(Cc3ccc(C)cc3)CCN(C(=O)CCC(=O)O[C@H]3CC[C@@]4(C)C(=CC[C@H]5[C@@H]6C[C@@H]7O[C@]8(CC[C@@H](C)CO8)[C@@H](C)[C@@H]7[C@@]6(C)CC[C@@H]54)C3)CC2)cc1`, for which the IC50 with A549 was 3.6 µM; with MCF7, > 10 µM; in the assay on HepG2 [1], 6.1 µM; in the assay with L02, 18.4 µM.

In the case of `C[C@@H]1CC[C@@]2(OC1)O[C@H]1C[C@H]3[C@@H]4CC=C5C[C@@H](OC(=O)CCC(=O)N6CCOCC6)CC[C@]5(C)[C@H]4CC[C@]3(C)[C@H]1[C@@H]2C`, the IC50 was 3.2 µM in the assay with A549, > 10 µM with MCF7, 10.4 µM in the assay with HepG2 [1] and 34.3 µM with L02.

Consider `C[C@@H]1CC[C@@]2(OC1)O[C@H]1C[C@H]3[C@@H]4CC=C5C[C@@H](OC(=O)CCC(=O)N6CCNCC6)CC[C@]5(C)[C@H]4CC[C@]3(C)[C@H]1[C@@H]2C`, for which the IC50 with A549 is 2.4 µM; with MCF7, 2.8 µM; in the assay on HepG2 [1] it was 1.9 µM; in the assay with L02 it was 18.6 µM. The Activity came out at 57.4% in the assay on HepG2 [2]; 21.5% with HepG2 [3]; 18.6% in the assay with HepG2 [4]; 64.2% in the assay with HepG2 [5]; 17.5% with HepG2 [6]; 17.3% with HepG2 [7]. For the same compound, the Activity was found to be 88.7% in the assay on HepG2 [12]; 6.08% in the assay on HepG2 [13]; 5.12% in the assay with HepG2 [14]; 0.093% in the assay on HepG2 [15]; 78.7% in the assay on HepG2 [16]; 13.2% with HepG2 [17]. The Activity in the assay on HepG2 [18] stood at 7.85%; in the assay with HepG2 [19] it was 0.18%. The result with HepG2 [8], in the assay on HepG2 [9], in the assay on HepG2 [10] and in the assay with HepG2 [11] was Active.

Regarding `C[C@@H]1CC[C@@]2(OC1)O[C@H]1C[C@H]3[C@@H]4CC=C5C[C@@H](OC(=O)CCC(=O)N6CC[N+](Cc7ccccc7)(Cc7ccccc7)CC6)CC[C@]5(C)[C@H]4CC[C@]3(C)[C@H]1[C@@H]2C`, the IC50 stood at 2.9 µM in the assay with A549, 9.4 µM with MCF7, 6.4 µM in the assay on HepG2 [1] and 18.7 µM in the assay with L02.
